The values below come from US9776987B2, “Amide derivatives for GPR119 agonist” (CHONG KUN DANG PHARMACEUTICAL CORP., priority 2013, dated 2017).

Values after ≈ are worked out from the molar mass of the structure shown. Where two headings read alike, the source gives them in different places.

One data set concerns the target T1, human GPR119 receptor (Homo sapiens, UniProt Q8TDV5).
T1 construct: host or cells: GeneBLAzer T-Rex GPR 119 CHO-K1 DA cells (CHO-K1)
T1 sequence (Q8TDV5 1-335): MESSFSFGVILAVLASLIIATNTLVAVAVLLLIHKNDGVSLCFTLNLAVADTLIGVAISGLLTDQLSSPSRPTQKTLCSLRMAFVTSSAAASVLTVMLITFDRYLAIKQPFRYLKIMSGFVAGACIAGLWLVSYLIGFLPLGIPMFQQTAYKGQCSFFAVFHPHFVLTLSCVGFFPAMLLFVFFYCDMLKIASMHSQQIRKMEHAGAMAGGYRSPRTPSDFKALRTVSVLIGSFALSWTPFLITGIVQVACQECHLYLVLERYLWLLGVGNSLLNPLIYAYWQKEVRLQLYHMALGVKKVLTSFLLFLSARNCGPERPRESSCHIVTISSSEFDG
The experiment in a line: Activity test for human GPR119 receptor (GeneBLAzer T-Rex GPR 119 CHO-K1 DA cells). The settings on record: for EC50: human GPR119 receptor expressing CHO-K1 cells, 5 hours treatment, read-out: hGPR119 EC50; for activity for human GPR119 receptor (in words): judgement on the EC50 values of Table 11. Format: cell-based. The procedure:
1. Human GPR119 Receptor Cell
As a human GPR119 receptor expression cell for this test, the cell line “GeneBLAzer™ T-Rex GPR 119 CHO-K1 DA cells” that is commercially available from Invitrogen, was used. The cell was incubated in the DMEM media containing 1% dialyzed fetal bovine serum etc. The cell incubator was kept at constant temperature and constant humidity of 37° C., 5% CO2.
2. Activity Test for Human GPR119 Receptor
The human GPR119 receptor expressing cell was used to this test. Each of test compounds was added to be final concentrations of 0.1, 1, 10 μM in 96 well and tested in duplicate. A fixed amount of cell was added to each well of 96 well separately, and then treated with the test compound for 5 hours. After treatment of color development agent for 2 hours, the fluorescence value was determined with plate reader. To the luminous wavelength of control well, which was not treated with the sample, but in which only a vehicle […] was contained, the ratio of the luminous wavelength of test well, which was treated with the sample, was calculated, and then converted to obtain EC50 value.
3. Statistical Processing
All the results were expressed as mean±SD, and each test groups and the control group were compared using student's t-test to adjudge the effects of each test groups.

The subject of the next data set is Male C57/6J Jms mice. The experiment in a line: Glucose tolerance test in normal mouse. It is filed as in vivo. As for the experimental part: 1. Method of Glucose Tolerance Test
Male C57/6J Jms mice of 6-7 weeks of age were fasted for 16 hours before the start of glucose tolerance test. […]
Before compound administration, that is, at 0 hour, whole blood glucose level was determined using a Glucometer (ACCU-CHEK, Roche). At 30 minutes after compound administration, whole blood glucose level was determined once again, and 20% glucose (2 g/kg/10 mL) was administered orally. Whole blood glucose level was determined at 20, 40, 60, 80, and 120 minutes after 20% glucose administration. Whole blood glucose level vs. Time was graphicalized. Area under the curve (AUC) of whole blood glucose level was obtained using GraphPad Prism 4.0. The effect of glucose tolerance was adjudged with the corrected area under the curve (cAUC), on which the base value of glucose area under the curve was excluded.

Data set [1] in a line: Solubility test of GPR 119 agonist compounds (Nephelostar). Format: physicochemical. The settings on record: aqueous with cosolvent or surfactant or cyclodextrin, kinetic from dmso stock. The procedure:
1. Method of Solubility Test
Each test compounds were dissolved in 5% DMSO aqueous solution as a solvent at several concentrations. When a laser was irradiated to the solution, the particles, which are not dissolved in the solvent, scatter the light. The level of the scattered light is dependent to the number of the particles, so the solubility of the test compound in the solution can be determined using the relationship. As the test equipment, Nephelostar was used.

For data set [2], the system named is Glucagon-Like Peptide-1 (GLP-1) secretion. The experiment in a line: Secretion capacity test of glucagon-like peptide-1 (GLP-1). Format: in vivo, mouse. The settings on record: normal mice, oral, AUC of plasma GLP-1 level, vehicle (water) 100%. The procedure: 3. Secretion Capacity Test of Glucagon-Like Peptide-1 (GLP-1)
Male C57/6J Jms mice of 6-7 weeks of age were fasted for 16 hours before the start of the test of secretion capacity test of GLP-1. The experimental animal groups consist of: a vehicle group (100% DI water); and test groups administered with each compounds (10 mg/kg). Blood samples were taken from the orbital vein of the test animals. Plasma GLP-1 level was determined using a GLP-1 ELISA kit (Total GLP-1 ELISA, ALPCO). With the base of 30 minutes before the compound administration, each blood samples were taken at 30, 60, 120 and 210 minutes after the compound administration. 30% Glucose solution (3 g/kg/10 mL) was administered orally at 5 minutes before each blood-collecting. From the collected blood, only plasma was taken using a centrifuge (12000 rpm, 15 minutes), and stored at −80° C. before analysis. Plasma GLP-1 level vs. Time was graphicalized. Area under the curve (AUC) of plasma GLP-1 level was obtained using GraphPad Prism 4.0. All the results were expressed as mean±SD, and each test groups and the control group were compared using one-way ANOVA test (Dunnett's test, *p<0.05, **p<0.01, ***p<0.001) to adjudge the effects of each test groups.

Setting [3] is: 10 mg/kg, whole blood glucose AUC after oral glucose 2 g/kg, 10 mg/kg.
The mark [4] stands for this setting: pH 2, 5% DMSO aqueous solution, read-out: Solubility pH 2.
[5] abbreviates: pH 4, 5% DMSO aqueous solution, read-out: Solubility pH 4.
The mark [6] stands for this setting: pH 6, 5% DMSO aqueous solution, read-out: Solubility pH 6.
The mark [7] stands for this setting: pH 8, 5% DMSO aqueous solution, read-out: Solubility pH 8.
[8] abbreviates: 10 mg/kg, whole blood glucose AUC after oral glucose 2 g/kg.

In the case of `NC(=O)[C@@H]1C[C@@H](O)CN1C(=O)c1ccc(-c2ccc(OCC3CCN(CC4(C(F)(F)F)CCC4)CC3)cc2)cc1` [Compound 1199, (2S,4R)-4-hydroxy-1-(4′-((1-((1-(trifluoromethyl)cyclobutyl)methyl)piperidin-4-yl)methoxy)biphenylcarbonyl)pyrrolidin-2-carboxamide], at human GPR119 receptor, the EC50 (as a rule, the concentration needed to bring the measured effect to its halfway point) was determined as 12 nM. Also, in the data set on Male C57/6J Jms mice (setting [3]), the “Decrease % of AUC at 10 mg/kg” value came to 31%.

As for `CC(C)(F)CN1CCC(COc2ccc(-c3ccc(C(=O)N4CCC[C@@]4(C)C(N)=O)c(F)c3)nc2)CC1` [Compound 1207, (S)-1-(2-fluoro-4-(5-((1-(2-fluoro-2-methylpropyl)piperidin-4-yl)methoxy)pyridin-2-yl)benzoyl)-2-methylpyrrolidin-2-carboxamide], the 50% effective concentration (EC50) on human GPR119 receptor amounted to 0.07 nM. In addition, the “activity for human GPR119 receptor (in words)” value (“activity” for short) on human GPR119 receptor was “excellent activity”. Further, the solubility in data set [1] (setting [4]), in data set [1] (setting [5]), in data set [1] (setting [6]) and in data set [1] (setting [7]) was more than 257 µg/mL in each case. Also, the “GLP-1 secretion (%) at 10 mg/kg of dose” value in data set [2] was found to be 223%. The “Decrease % of AUC at 2.5 mg/kg” value in the data set with Male C57/6J Jms mice (2.5 mg/kg) is on record as 31.3%. In addition, the “Decrease % of AUC at 5 mg/kg” value in the data set on Male C57/6J Jms mice (5 mg/kg) was 45.1%.

`CC(C)(CN1CCC(COc2ccc(-c3ccc(C(=O)N4C[C@H](O)C[C@H]4C(N)=O)c(F)c3)cn2)CC1)C(F)(F)F` [Compound 1208, (2S,4R)-1-(2-fluoro-4-(6-((1-(3,3,3-trifluoro-2,2-dimethylpropyl)piperidin-4-yl)methoxy)pyridin-3-yl)benzoyl)-4-hydroxypyrrolidin-2-carboxamide]: on human GPR119 receptor, the EC50 stood at 3 nM and the “activity” value is reported as “excellent activity”. For the same compound, in the data set on Male C57/6J Jms mice (setting [3]), the “Decrease % of AUC at 10 mg/kg” value is 38%.

`CC(C)(CN1CCC(COc2ccc(-c3ccc(C(=O)N4C[C@H](O)C[C@H]4C(N)=O)c(F)c3)c(F)c2)CC1)C(F)(F)F` [Compound 1240, (2S,4R)-1-(2′,3-difluoro-4′-((1-(3,3,3-trifluoro-2,2-dimethylpropyl)piperidin-4-yl)methoxy)biphenylcarbonyl)-4-hydroxypyrrolidin-2-carboxamide]: the EC50 on human GPR119 receptor was determined as 0.1 nM. Moreover, the “Decrease % of AUC at 10 mg/kg” value in the data set with Male C57/6J Jms mice (setting [3]) worked out at 35%.

On to `CCC(F)(CC)CN1CCC(COc2ccc(-c3ccc(C(=O)N4C[C@H](O)C[C@H]4C(N)=O)c(F)c3)nc2)CC1` [Compound 1279, (2S,4R)-1-(4-(5-((1-(2-ethyl-2-fluorobutyl)piperidin-4-yl)methoxy)pyridin-2-yl)-2-fluorobenzoyl)-4-hydroxypyrrolidin-2-carboxamide], for which the EC50 on human GPR119 receptor is 13 nM. Also, the “activity” value at human GPR119 receptor was “excellent activity”. The solubility (usually the concentration that dissolves in the medium under given conditions) in data set [1] (setting [4]) is more than 272 µg/mL; in data set [1] (setting [5]) it was more than 272 µg/mL; in data set [1] (setting [6]) it was more than 272 µg/mL; in data set [1] (setting [7]), 133 µg/mL (≈ 244 µM). In addition, in data set [2], the “GLP-1 secretion (%) at 10 mg/kg of dose” value is 324%. For the same compound, the “Decrease % of AUC at 2.5 mg/kg” value in the data set on Male C57/6J Jms mice (2.5 mg/kg) turned out to be 20.8%. Moreover, the “Decrease % of AUC at 5 mg/kg” value in the data set with Male C57/6J Jms mice (5 mg/kg) is 30.2%.

In the case of `CC(C)(CN1CCC(COc2ccc(-c3ccc(C(=O)N4C[C@H](O)C[C@H]4C(N)=O)cc3)nc2)CC1)C(F)(F)F` [Compound 1322, (2S,4R)-4-hydroxy-1-(4-(5-((1-(3,3,3-trifluoro-2,2-dimethylpropyl)piperidin-4-yl)methoxy)pyridin-2-yl)benzoyl)pyrrolidin-2-carboxamide], on human GPR119 receptor, the EC50 was determined as 6 nM. The “activity” value at human GPR119 receptor is given as “excellent activity”. Further, the solubility is more than 274 µg/mL in data set [1] (setting [4]), more than 274 µg/mL in data set [1] (setting [5]), more than 274 µg/mL in data set [1] (setting [6]) and 89 µg/mL (≈ 162 µM) in data set [1] (setting [7]).

Take `CC(C)(CN1CCC(COc2ccc(-c3ccc(C(=O)N4C[C@H](O)C[C@H]4C(N)=O)cc3F)nc2)CC1)C(F)(F)F` [Compound 1323, (2S,4R)-1-(3-fluoro-4-(5-((1-(3,3,3-trifluoro-2,2-dimethylpropyl)piperidin-4-yl)methoxy)pyridin-2-yl)benzoyl)-4-hydroxypyrrolidin-2-carboxamide]: the EC50 at human GPR119 receptor worked out at 4 nM. Moreover, the “activity” value at human GPR119 receptor is recorded as “excellent activity”. The solubility in data set [1] (setting [4]) was more than 283 µg/mL; in data set [1] (setting [5]), more than 283 µg/mL; in data set [1] (setting [6]) it was 355 µg/mL (≈ 627 µM); in data set [1] (setting [7]) it was 88 µg/mL (≈ 155 µM).

With `C[C@@]1(C(N)=O)C[C@@H](O)CN1C(=O)c1ccc(-c2ccc(OCC3CCN(CC4(C(F)(F)F)CCC4)CC3)nc2)c(F)c1` [Compound 1325, (2S,4R)-1-(3-fluoro-4-(6-((1-((1-(trifluoromethyl)cyclobutyl)methyl)piperidin-4-yl)methoxy)pyridin-3-yl)benzoyl)-4-hydroxy-2-methylpyrrolidin-2-carboxamide], the concentration giving a half-maximal response (EC50) on human GPR119 receptor was 14 nM. Also, the “activity” value on human GPR119 receptor is listed as “excellent activity”. The solubility is more than 296 µg/mL in data set [1] (setting [4]), more than 296 µg/mL in data set [1] (setting [5]), more than 296 µg/mL in data set [1] (setting [6]) and 114 µg/mL (≈ 192 µM) in data set [1] (setting [7]).

Consider `C[C@@]1(C(N)=O)C[C@@H](O)CN1C(=O)c1ccc(-c2ccc(OCC3CCN(CC4(C(F)(F)F)CCC4)CC3)cn2)c(F)c1` [Compound 1329, (2S,4R)-1-(3-fluoro-4-(5-((1-((1-(trifluoromethyl)cyclobutyl)methyl)piperidin-4-yl)methoxy)pyridin-2-yl)benzoyl)-4-hydroxy-2-methylpyrrolidin-2-carboxamide], for which the EC50 on human GPR119 receptor was determined as 10 nM. For the same compound, the “activity” value on human GPR119 receptor was “excellent activity”. Further, the solubility in data set [1] (setting [4]) was more than 296 µg/mL; in data set [1] (setting [5]), more than 296 µg/mL; in data set [1] (setting [6]) it was more than 296 µg/mL; in data set [1] (setting [7]) it was 112 µg/mL (≈ 189 µM).

`CC(C)c1noc(N2CCC(COc3ccc(-c4ccc(S(C)(=O)=O)cc4)nc3)CC2)n1` [GSK-1292263, reference compound]: the “Decrease % of AUC at 10 mg/kg” value with Male C57/6J Jms mice (setting [8]) is reported as 10~20%.

In the case of `CCc1cnc(N2CCC(c3nc(COc4ccc(-n5cnnn5)cc4)cs3)CC2)nc1` [MBX-2982, reference compound], the solubility in data set [1] (setting [4]) was more than 208 µg/mL; in data set [1] (setting [5]), 133 µg/mL (≈ 297 µM); in data set [1] (setting [6]), 61 µg/mL (≈ 136 µM); in data set [1] (setting [7]), 39 µg/mL (≈ 86.9 µM). Moreover, the “GLP-1 secretion (%) at 10 mg/kg of dose” value in data set [2] turned out to be 114%. Moreover, the “Decrease % of AUC at 2.5 mg/kg” value in the data set with Male C57/6J Jms mice (2.5 mg/kg) turned out to be 9.5%. For the same compound, the “Decrease % of AUC at 5 mg/kg” value in the data set on Male C57/6J Jms mice (5 mg/kg) stood at 18.5%. Further, the “Decrease % of AUC at 10 mg/kg” value with Male C57/6J Jms mice (setting [8]) is recorded as 20~30%.
